Experimental data from ChEMBL document CHEMBL4382200, “Discovery of Novel 7-Aryl 7-Deazapurine 3'-Deoxy-ribofuranosyl Nucleosides with Potent Activity against Trypanosoma cruzi” (J Med Chem, 2018).

Tested on: Trypanosoma cruzi
Experiment: Antiparasitic activity against Trypanosoma cruzi Tulahuen intracellular amastigotes by beta-galactosidase reporter gene assay
Assay type: functional, organism-based

CN(C)c1ncnc2c1ncn2[C@@H]1O[C@H](CO)[C@@H](N)[C@H]1O [PUROMYCIN AMINONUCLEOSIDE]
EC50: 1000 nM
